In this assay the test system is RPMI 8226 cells. The assay is described as follows: In vitro BTZ cytotoxicity study (SRB assay). It counts as cell-based. The following applies: Homo sapiens, 72 hours, read-out: IC50 of % cell survival. For orientation: Sulforhodamine B stains cellular protein and so reports cell mass.

The structures appear in SMILES notation.

On to `CC(C)C[C@H](NC(=O)[C@H](Cc1ccccc1)NC(=O)c1cnccn1)B(O)O` [BTZ, bortezomib, reference compound], for which the IC50 was 4 ± 1.7 nM.

A word on the IC50: it is the point on the concentration scale where inhibition reaches its midpoint.

The values above are taken from US20220354834A1, “METHODS AND MATERIALS FOR TREATING NEUROTOXICITY” (Cavion, Inc., priority 2019, published 2022).
